Laboratory results as given in publication PMC5969746 (PLoS ONE, 2018).
Changes are numbered by the printed parent chain. Names may count otherwise.

Columns and labels:
[1] = molecular target: T1, scyllo-inositol dehydrogenase with L-glucose dehydrogenase activity (Pl-scyllo-IDH) (Paracoccus laeviglucosivorans, UniProt K7ZP76); assay: X-ray crystal structure, […] Å; format: binding
T1 construct: gene lgdA; lgdA in pET21a(+), expressed in E. coli BL21(DE3), Ni-NTA purified; homo-tetramer, active site includes H318 of the adjacent subunit
T1 sequence (K7ZP76 1-372): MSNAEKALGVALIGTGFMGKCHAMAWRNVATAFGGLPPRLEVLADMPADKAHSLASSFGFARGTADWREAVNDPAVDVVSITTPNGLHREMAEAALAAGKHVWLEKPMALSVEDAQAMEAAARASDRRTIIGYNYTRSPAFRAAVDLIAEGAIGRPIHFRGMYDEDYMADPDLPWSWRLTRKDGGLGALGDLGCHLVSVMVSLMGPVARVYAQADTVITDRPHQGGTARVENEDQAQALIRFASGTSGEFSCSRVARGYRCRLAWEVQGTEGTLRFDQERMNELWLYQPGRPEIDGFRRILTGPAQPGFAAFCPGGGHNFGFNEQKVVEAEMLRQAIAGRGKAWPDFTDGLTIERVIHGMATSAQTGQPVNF

[2] = molecular target: T1, scyllo-inositol dehydrogenase with L-glucose dehydrogenase activity (Pl-scyllo-IDH); assay: X-ray crystal structure, […] Å; format: binding; remark: listed apart in the source
[3] = molecular target: T1, scyllo-inositol dehydrogenase with L-glucose dehydrogenase activity (Pl-scyllo-IDH); assay: X-ray crystal structure, […] Å; format: binding; details: crystal soaked with 100 mM myo-inositol and 25 mM NAD+; active site
purified protein = substrate: O[C@H]1[C@H](O)[C@@H](O)[C@H](O)[C@@H](O)[C@@H]1O; assay: purified protein; format: biochemical, Paracoccus laeviglucosivorans; details: 20 mM NAD+, 100 mM Tris-HCl, pH 9.0
[4] = molecular target: the molecule itself; assay: crystal structure; homo-tetramer in the asymmetric unit, space group P212121; crystals grown at 20°C by hanging-drop vapor diffusion, 0.1 M sodium acetate pH 4.8-5.4, 12-35% PEG 3350; apo form and complexes with NAD+/NADH and sugars

O=C1O[C@@H](CO)[C@H](O)[C@@H](O)[C@@H]1O [L-glucono-1,5-lactone]
X-ray crystal structure, 1.8 Å ([1]; crystal soaked with 100 mM L-glucose and 25 mM NAD+, active site, NADH complex): bound molecule in the active site was in fact the reaction product of L-glucose oxidation

NC(=O)C1=CN([C@@H]2O[C@H](COP(=O)(O)OP(=O)(O)OC[C@H]3O[C@@H](n4cnc5c(N)ncnc54)[C@H](O)[C@@H]3O)[C@@H](O)[C@H]2O)C=CC1 [NADH]
X-ray crystal structure, 1.8 Å ([1]; complex with L-glucono-1,5-lactone, crystal soaked with NAD+, assigned as NADH): the bound cofactor molecule might therefore be NADH

NC(=O)c1ccc[n+]([C@@H]2O[C@H](COP(=O)(O)OP(=O)(O)OC[C@H]3O[C@@H](n4cnc5c(N)ncnc54)[C@H](O)[C@@H]3O)[C@@H](O)[C@H]2O)c1 [NAD^+]
X-ray crystal structure, 2.0 Å ([2]; complex with scyllo-inosose (also with myo-inositol, 5YA8, 2.3 Å), 25 mM NAD+ soak): myo-inositol/NAD^+ and scyllo-inosose/NAD^+ complexes have been deposited

O[C@H]1[C@H](O)[C@@H](O)[C@H](O)[C@@H](O)[C@H]1O [myo-inositol]
X-ray crystal structure, 2.3 Å [3]: complex structures of Pl-scyllo-IDH with scyllo-inosose and myo-inositol were also determined

O=C1[C@@H](O)[C@H](O)[C@@H](O)[C@H](O)[C@H]1O [scyllo-inosose]
X-ray crystal structure, 2.0 Å ([2]; crystal soaked with 100 mM scyllo-inosose and 25 mM NAD+, active site): the carbonyl oxygen located between K106 and H195 formed hydrogen bonds

B1: scyllo-inositol dehydrogenase with L-glucose dehydrogenase activity (Pl-scyllo-IDH) (Paracoccus laeviglucosivorans; R178A) (protein)
chain: T1 sequence (K7ZP76 1-372) with R178A
notes: lgdA in pET21a(+), expressed in E. coli BL21(DE3), Ni-NTA purified; homo-tetramer, active site includes H318 of the adjacent subunit
Km (purified protein): 40.6 ± 7.2 mM | kcat (purified protein): 8.1 ± 0.65 s⁻¹ | kcat/Km (purified protein): 200 M⁻¹ s⁻¹

B2: Paracoccus laeviglucosivorans scyllo-inositol dehydrogenase (enzyme)
chain: T1 sequence (K7ZP76 1-372)
notes: Protein encoded by the lgdA gene of Paracoccus laeviglucosivorans (scyllo-inositol dehydrogenase, GFO/IDH/MocA family); A selenomethionine-substituted form (E. coli B834(DE3)) was used only for phasing; Crystals were also soaked with NAD+ and L-glucose, myo-inositol or scyllo-inosose; also called Pl-scyllo-IDH; LgdA; source: E. coli BL21(DE3), pET21a(+), purified (Ni-NTA agarose, dialysis)
stoichiometry N [4]: 4
